Here are results for 27 compounds from patent publication US12286442B2, “Methods and materials for increasing transcription factor eb polypeptide levels” (University of Pittsburgh—Of the Commonwealth System of …, priority 2019, dated 2025).

Each structure is given as a SMILES string.

One data set relates to TFEB. Kind of data set: High content screen measuring TFEB nuclear accumulation (TFEB nuclear/cytosol ratio) in BEAS-2B cells stably expressing TFEB-EGFP. As to conditions: 18 hours incubation. Type of data set: cell-based, human. The procedure, abridged: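 Readout: lowest compound concentration giving a 25% rise in nuclear/cytosol TFEB-GFP ratio, from DAPI-masked nuclear and mask-expanded cytosolic signals. Cells (BEAS-2B, TFEB-EGFP stable, ~2300–2500/well) rested 8 hours, then treated 18 hours with compound serial dilutions in 2% FBS medium before PFA fixation and DAPI staining.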

In another data set the test system is BEAS-2B cells. Kind of data set: Toxicity: compound concentration needed to induce greater than 50 percent of cell loss. The note with it: 18 hours incubation. Type of data set: cell-based, human. A digest of the protocol:
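Reported value is the concentration giving greater than 50 percent cell loss, grouped into bins (≥25 μM; between 1 and 25 μM; ≤1 μM as "+++"). Measured by high-content imaging of DAPI-stained BEAS-2B TFEB-EGFP cells fixed after 18 h compound exposure.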

Consider `c1cnc2nc(-c3cncs3)nc(Nc3ccc4[nH]ncc4c3)c2c1` [Compound 383], for which the “efficacy (minimal compound concentration needed to increase TFEB nuclear/cytosol ratio by 25%)” value in the data set on TFEB is “++ (“++” equals between ≤25 μM and >1 μM)”. The “toxicity (compound concentration needed to induce greater than 50 percent of cell loss)” value with BEAS-2B cells is given as “+ (cell loss of greater than 50 percent at a concentration that equals or is greater than 25 μM was represented as)”.
As to `FC(F)(F)c1cccc(Nc2nc(-c3ccncc3)nc3ccccc23)c1` [Compound 189], the “efficacy (minimal compound concentration needed to increase TFEB nuclear/cytosol ratio by 25%)” value in the data set on TFEB was “++ (“++” equals between ≤25 μM and >1 μM)”. For the same compound, the “toxicity (compound concentration needed to induce greater than 50 percent of cell loss)” value with BEAS-2B cells is on record as “+ (cell loss of greater than 50 percent at a concentration that equals or is greater than 25 μM was represented as)”.
For `Cc1cc(Nc2nc(-c3ccncc3)nc3ccccc23)cc(C(F)(F)F)c1` [Compound 10], in the data set with TFEB, the “efficacy (minimal compound concentration needed to increase TFEB nuclear/cytosol ratio by 25%)” value is “+ (“+” equals >25 μM)”. Moreover, the “toxicity (compound concentration needed to induce greater than 50 percent of cell loss)” value in the data set on BEAS-2B cells is “+ (cell loss of greater than 50 percent at a concentration that equals or is greater than 25 μM was represented as)”.
The matching figures for `Cc1nc2cc(Cl)c(Nc3nc(-c4ccncc4)nc4ccncc34)cc2o1` [Compound 144]: “+ (“+” equals >25 μM)” and “+ (cell loss of greater than 50 percent at a concentration that equals or is greater than 25 μM was represented as)”.
On the same counts, the results for `O=[N+]([O-])c1ccc(-c2nc(Nc3cccc(F)c3)c3ccccc3n2)cc1` [Compound 9] are “+ (“+” equals >25 μM)” and “+ (cell loss of greater than 50 percent at a concentration that equals or is greater than 25 μM was represented as)”.
The matching figures for `Fc1ccc(Nc2nc(-c3ccncc3)nc3ccccc23)cc1` [Compound 181]: “+++ (“+++” equals ≤1 μM)” and “+ (cell loss of greater than 50 percent at a concentration that equals or is greater than 25 μM was represented as)”.
As for `CNc1ccc(Nc2nc(-c3ccncc3)nc3ccccc23)cc1` [Compound 59], in the data set with TFEB, the “efficacy (minimal compound concentration needed to increase TFEB nuclear/cytosol ratio by 25%)” value is “++ (“++” equals between ≤25 μM and >1 μM)”. In addition, the “toxicity (compound concentration needed to induce greater than 50 percent of cell loss)” value in the data set with BEAS-2B cells was “+ (cell loss of greater than 50 percent at a concentration that equals or is greater than 25 μM was represented as)”.
As to `CC(C)(C)c1cc2cc(Nc3nc(-c4ccncc4)nc4ccccc34)ccc2[nH]1` [Compound 74], the “efficacy (minimal compound concentration needed to increase TFEB nuclear/cytosol ratio by 25%)” value in the data set on TFEB is recorded as “+++ (“+++” equals ≤1 μM)”. Moreover, in the data set with BEAS-2B cells, the “toxicity (compound concentration needed to induce greater than 50 percent of cell loss)” value was “++ (cell loss of greater than 50 percent at a concentration less than 25 μM and greater than 1 μM was represented as)”.
With `CC(=O)Nc1ccc(Nc2nc(-c3ccncc3)cc3ncccc23)cc1O` [Compound 401], the “efficacy (minimal compound concentration needed to increase TFEB nuclear/cytosol ratio by 25%)” value in the data set with TFEB is recorded as “+++ (“+++” equals ≤1 μM)”. Besides, in the data set with BEAS-2B cells, the “toxicity (compound concentration needed to induce greater than 50 percent of cell loss)” value is given as “+ (cell loss of greater than 50 percent at a concentration that equals or is greater than 25 μM was represented as)”.
The matching figures for `c1cnc2ccc(Nc3nc(-c4cncs4)nc4ccccc34)cc2c1` [Compound 106]: “+ (“+” equals >25 μM)” and “+ (cell loss of greater than 50 percent at a concentration that equals or is greater than 25 μM was represented as)”.
The matching figures for `N#Cc1c[nH]c2ccc(Nc3nc(-c4ccncc4)nc4ccccc34)cc12` [Compound 38]: “+ (“+” equals >25 μM)” and “+ (cell loss of greater than 50 percent at a concentration that equals or is greater than 25 μM was represented as)”.
The matching figures for `Cc1cc(C)cc(Nc2nc(-c3ccncc3)nc3ccccc23)c1` [Compound 2]: “+++ (“+++” equals ≤1 μM)” and “+ (cell loss of greater than 50 percent at a concentration that equals or is greater than 25 μM was represented as)”.
For `Fc1cc(Nc2nc(-c3ccncc3)nc3ncccc23)cc2cc[nH]c12` [Compound 157], in the data set on TFEB, the “efficacy (minimal compound concentration needed to increase TFEB nuclear/cytosol ratio by 25%)” value was “+++ (“+++” equals ≤1 μM)”. For the same compound, in the data set on BEAS-2B cells, the “toxicity (compound concentration needed to induce greater than 50 percent of cell loss)” value is “++ (cell loss of greater than 50 percent at a concentration less than 25 μM and greater than 1 μM was represented as)”.
Take `OC1CCN(c2nc(-c3ccncc3)nc3ccccc23)CC1` [Compound 177]: the “efficacy (minimal compound concentration needed to increase TFEB nuclear/cytosol ratio by 25%)” value with TFEB was “+ (“+” equals >25 μM)”. In addition, the “toxicity (compound concentration needed to induce greater than 50 percent of cell loss)” value with BEAS-2B cells is on record as “+ (cell loss of greater than 50 percent at a concentration that equals or is greater than 25 μM was represented as)”.
`CC(C)c1nc2ccc(Nc3nc(-c4ccncc4)nc4c(F)cccc34)cc2s1` [Compound 367]: in the data set on TFEB, the “efficacy (minimal compound concentration needed to increase TFEB nuclear/cytosol ratio by 25%)” value was “++ (“++” equals between ≤25 μM and >1 μM)”. Moreover, the “toxicity (compound concentration needed to induce greater than 50 percent of cell loss)” value in the data set with BEAS-2B cells was “+ (cell loss of greater than 50 percent at a concentration that equals or is greater than 25 μM was represented as)”.
`CC(C)(C)c1cc2cc(Nc3nc(-c4ccncc4)nc4ncccc34)ccc2[nH]1` [Compound 134]: the “efficacy (minimal compound concentration needed to increase TFEB nuclear/cytosol ratio by 25%)” value in the data set with TFEB is on record as “+++ (“+++” equals ≤1 μM)”. Moreover, the “toxicity (compound concentration needed to induce greater than 50 percent of cell loss)” value with BEAS-2B cells was “+ (cell loss of greater than 50 percent at a concentration that equals or is greater than 25 μM was represented as)”.
On the same counts, the results for `c1ccc2c(Nc3ccc4cnsc4c3)nc(-c3ccncc3)nc2c1` [Compound 24] are “+++ (“+++” equals ≤1 μM)” and “+ (cell loss of greater than 50 percent at a concentration that equals or is greater than 25 μM was represented as)”.
With `CCc1nc2ccc(Nc3nc(-c4ccncc4)nc4cccc(F)c34)cc2s1` [Compound 368], in the data set with TFEB, the “efficacy (minimal compound concentration needed to increase TFEB nuclear/cytosol ratio by 25%)” value was “++ (“++” equals between ≤25 μM and >1 μM)”. Besides, in the data set with BEAS-2B cells, the “toxicity (compound concentration needed to induce greater than 50 percent of cell loss)” value was “+ (cell loss of greater than 50 percent at a concentration that equals or is greater than 25 μM was represented as)”.
On to `COc1ccc(NC(=O)Cn2c(=O)n(-c3ccc(C)cc3)c(=O)c3ccccc32)cc1` [Compound 220], for which the “efficacy (minimal compound concentration needed to increase TFEB nuclear/cytosol ratio by 25%)” value with TFEB was “+ (“+” equals >25 μM)”. Besides, the “toxicity (compound concentration needed to induce greater than 50 percent of cell loss)” value in the data set with BEAS-2B cells was “+ (cell loss of greater than 50 percent at a concentration that equals or is greater than 25 μM was represented as)”.
The matching figures for `c1cc(-c2cc3cnccc3c(Nc3ccc4nc(C5CC5)sc4c3)n2)ccn1` [Compound 398]: “+++ (“+++” equals ≤1 μM)” and “+ (cell loss of greater than 50 percent at a concentration that equals or is greater than 25 μM was represented as)”.
Turning to `O=C1NC(=O)c2cc(Nc3nc(-c4ccncc4)nc4ccccc34)ccc21` [Compound 33], the “efficacy (minimal compound concentration needed to increase TFEB nuclear/cytosol ratio by 25%)” value with TFEB is reported as “+ (“+” equals >25 μM)”. In addition, the “toxicity (compound concentration needed to induce greater than 50 percent of cell loss)” value with BEAS-2B cells was “+ (cell loss of greater than 50 percent at a concentration that equals or is greater than 25 μM was represented as)”.
With `Nc1ccc(Nc2nc(-c3ccncc3)nc3ccccc23)cc1` [Compound 56], in the data set on TFEB, the “efficacy (minimal compound concentration needed to increase TFEB nuclear/cytosol ratio by 25%)” value was “++ (“++” equals between ≤25 μM and >1 μM)”. In addition, the “toxicity (compound concentration needed to induce greater than 50 percent of cell loss)” value with BEAS-2B cells is on record as “+ (cell loss of greater than 50 percent at a concentration that equals or is greater than 25 μM was represented as)”.
Turning to `CCN1CCCC1CNc1nc(-c2ccncc2)nc2ccccc12` (stereo not drawn) [Compound 176], the “efficacy (minimal compound concentration needed to increase TFEB nuclear/cytosol ratio by 25%)” value in the data set on TFEB was “++ (“++” equals between ≤25 μM and >1 μM)”. Further, in the data set with BEAS-2B cells, the “toxicity (compound concentration needed to induce greater than 50 percent of cell loss)” value is recorded as “+ (cell loss of greater than 50 percent at a concentration that equals or is greater than 25 μM was represented as)”.
Turning to `CC(C)(C)c1cc2cc(Nc3nc(-c4ccncc4)cc4ncccc34)ccc2[nH]1` [Compound 243], the “efficacy (minimal compound concentration needed to increase TFEB nuclear/cytosol ratio by 25%)” value with TFEB is given as “+++ (“+++” equals ≤1 μM)”. Besides, the “toxicity (compound concentration needed to induce greater than 50 percent of cell loss)” value in the data set with BEAS-2B cells was “+ (cell loss of greater than 50 percent at a concentration that equals or is greater than 25 μM was represented as)”.
As for `OC(c1cccc(F)c1)c1nc(-c2ccncc2)nc2ccccc12` (stereo not drawn) [Compound 6], the “efficacy (minimal compound concentration needed to increase TFEB nuclear/cytosol ratio by 25%)” value with TFEB is on record as “+ (“+” equals >25 μM)”. Also, the “toxicity (compound concentration needed to induce greater than 50 percent of cell loss)” value in the data set on BEAS-2B cells is recorded as “+ (cell loss of greater than 50 percent at a concentration that equals or is greater than 25 μM was represented as)”.
For the compound `c1ccc2c(Nc3ccc4c(c3)OCCN4)nc(-c3ccncc3)nc2c1` [Compound 41], in the data set with TFEB, the “efficacy (minimal compound concentration needed to increase TFEB nuclear/cytosol ratio by 25%)” value was “++ (“++” equals between ≤25 μM and >1 μM)”. Besides, the “toxicity (compound concentration needed to induce greater than 50 percent of cell loss)” value in the data set on BEAS-2B cells is “++ (cell loss of greater than 50 percent at a concentration less than 25 μM and greater than 1 μM was represented as)”.
In the case of `Cn1c(=O)c2ccccc2n(CC(=O)Nc2ccc(F)cc2)c1=O` [Compound 225], in the data set with TFEB, the “efficacy (minimal compound concentration needed to increase TFEB nuclear/cytosol ratio by 25%)” value is “+ (“+” equals >25 μM)”. In addition, the “toxicity (compound concentration needed to induce greater than 50 percent of cell loss)” value in the data set with BEAS-2B cells is listed as “+ (cell loss of greater than 50 percent at a concentration that equals or is greater than 25 μM was represented as)”.
